Data as given in the supplement of paper PMC10307832.

What was measured:
Experiment in all cases: relative viability (nuclei count vs DMSO), 5 days (fraction); higher = more cells survive
Shikonin + Vorinostat = compound: CC(C)=CC[C@@H](O)C1=CC(=O)c2c(O)ccc(O)c2C1=O [Shikonin] + O=C(CCCCCCC(=O)Nc1ccccc1)NO [Vorinostat] (partner 1 µM)
How it was run: (§1)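 Five library-drug doses in √10 steps were combined with a fixed anchor-drug dose, or a single drug was given alone, by pin tool to lung cancer cell lines in 1536-well plates the day after seeding. Nuclei were stained and counted after 5 days. Relative viability is the nuclei count in treated wells over that in vehicle wells, taken as the median of duplicate plates.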

Shikonin + Bortezomib = compound: CC(C)=CC[C@@H](O)C1=CC(=O)c2c(O)ccc(O)c2C1=O [Shikonin] + CC(C)C[C@H](NC(=O)[C@H](Cc1ccccc1)NC(=O)c1cnccn1)B(O)O [Bortezomib] (partner 0.002 µM)
How it was run: as §1

[1] = compound: CC(C)N(CCCNC(=O)Nc1ccc(C(C)(C)C)cc1)C[C@H]1O[C@@H](n2ccc3c(N)ncnc32)[C@H](O)[C@@H]1O + NC(=O)Nc1cc(-c2cccc(F)c2)sc1C(=O)N[C@H]1CCCNC1 [AZD7762] (partner 0.2 µM)
How it was run: as §1

[2] = compound: CC(C)N(CCCNC(=O)Nc1ccc(C(C)(C)C)cc1)C[C@H]1O[C@@H](n2ccc3c(N)ncnc32)[C@H](O)[C@@H]1O + N=C(N)NC(=N)NCCc1ccccc1 [Phenformin] (partner 250 µM)
How it was run: as §1

Cell Line | relative viability (Shikonin + Vorinostat; first compound 0.01 µM) | relative viability (Shikonin + Vorinostat; first compound 0.1 µM) | relative viability (Shikonin + Vorinostat; first compound 0.3162 µM) | relative viability (Shikonin + Vorinostat; first compound 1 µM) | relative viability (Shikonin + Bortezomib; first compound 0.01 µM) | relative viability (Shikonin + Bortezomib; first compound 0.1 µM) | relative viability (Shikonin + Bortezomib; first compound 0.3162 µM) | relative viability (Shikonin + Bortezomib; first compound 1 µM) | relative viability ([1]; first compound 0.08 µM) | relative viability ([1]; first compound 0.253 µM) | relative viability ([1]; first compound 0.8 µM) | relative viability ([1]; first compound 2.53 µM) | relative viability ([1]; first compound 8 µM) | relative viability ([2]; first compound 0.08 µM) | relative viability ([2]; first compound 0.253 µM) | relative viability ([2]; first compound 0.8 µM) | relative viability ([2]; first compound 2.53 µM) | relative viability ([2]; first compound 8 µM)
PC-14 | 0.807 | 0.833 | 0.77 | 0.484 | 0.973 | 0.953 | 1.02 | 0.881 | 0.321 | 0.364 | 0.401 | 0.274 | 0.287 | 0.637 | 0.544 | 0.556 | 0.454 | 0.532
NCI-H460 | 0.919 | 0.946 | 0.959 | 0.828 | 1.35 | 0.78 | 1.03 | 1.3 | 0.725 | 0.58 | 0.605 | 0.499 | 0.585 | 0.493 | 0.555 | 0.54 | 0.485 | 0.436
LOU-NH91 | 0.921 | 1.02 | 1.04 | 0.957 | 0.533 | 0.469 | 0.445 | 0.535 | 0.751 | 0.697 |  | 0.763 | 0.767 | 0.685 | 0.712 | 0.441 | 0.65 | 0.671
NCI-H322M | 0.672 | 0.911 | 0.953 | 0.978 | 1.14 | 1.32 | 1.26 | 1.33 | 0.529 | 0.541 | 0.751 | 0.51 | 0.803 | 0.795 | 0.711 | 0.75 | 0.749 | 0.762
NCI-H596 | 0.45 | 0.616 | 0.612 | 0.774 | 1.06 | 1.01 | 0.948 | 1.29 | 1.09 | 0.943 | 0.926 | 1.23 | 1.09 | 0.819 |  | 0.626 | 0.781 | 0.713
NCI-H727 | 1.32 | 1.44 | 1.27 | 1.14 | 0.862 | 0.933 | 0.973 | 0.755 | 0.634 | 0.624 | 0.649 | 0.328 | 0.694 | 0.554 | 0.461 | 0.46 | 0.639 | 0.412
NCI-H838 | 0.704 | 0.753 | 0.775 | 0.582 | 0.992 | 0.727 | 0.842 | 0.685 | 0.864 | 0.909 | 0.912 | 0.806 | 0.95 | 0.487 | 0.394 | 0.551 | 0.551 | 0.51
NCI-H1734 | 0.732 | 0.818 | 0.765 | 0.842 | 1.09 | 0.999 | 0.819 | 0.909 | 0.546 | 0.441 | 0.634 | 0.565 | 0.466 | 0.38 | 0.331 | 0.398 | 0.4 | 0.397
LXF-289 | 0.787 | 0.764 | 0.862 | 0.79 | 1.1 | 1.03 | 1 | 1.04 | 1.1 | 1.1 | 1.09 | 1.12 | 1 | 0.518 | 0.556 | 0.541 | 0.539 | 0.478
H3255 | 0.703 | 0.959 | 0.916 | 0.855 | 0.755 | 1.09 | 0.92 | 1.03 | 0.922 | 0.864 | 0.827 | 0.823 | 0.678 | 0.375 | 0.365 | 0.371 | 0.416 | 0.372
201T | 1.02 | 1.03 | 1.02 | 1 | 1.12 | 1.23 | 1.14 | 1.15 | 0.6 | 0.554 |  | 0.56 | 0.622 | 0.474 | 0.421 | 0.43 | 0.421 | 0.401
HOP-62 | 0.663 | 0.667 | 0.739 | 0.558 | 0.958 | 0.715 | 0.875 | 0.902 | 0.681 | 0.51 | 0.517 | 0.777 | 0.322 | 0.704 | 0.69 | 0.638 | 0.566 | 0.545
CAL-12T | 0.842 | 0.802 | 0.832 | 0.583 | 0.898 | 1.05 | 1.01 | 1.17 | 0.572 | 0.617 | 0.665 | 0.668 | 0.565 | 0.539 | 0.597 | 0.585 | 0.56 | 0.489
NCI-H647 | 0.54 | 0.624 | 0.72 | 0.513 | 1.06 | 0.829 | 1.05 | 1.03 | 0.457 | 0.523 | 0.509 | 0.366 | 0.414 | 0.469 | 0.559 |  | 0.478 | 0.568
NCI-H1755 | 0.637 | 0.807 | 0.888 | 0.665 | 0.978 | 1.1 | 1.11 | 0.98 | 0.473 | 0.401 | 0.44 | 0.444 | 0.426 | 0.62 | 0.609 | 0.614 | 0.632 | 0.554
NCI-H2085 | 0.78 | 0.917 | 0.775 | 0.824 | 1.08 | 1.02 | 1.01 | 0.922 | 0.979 | 0.766 | 0.921 | 1.08 | 1 | 0.693 | 0.592 | 0.816 | 0.789 | 0.631
